Experimental data published in patent US20080207738A1, “DRUG COMBINATIONS TO TREAT DRUG RESISTANT TUMORS” (priority 2007, published 2008).

Columns and labels:
[1] = test system: parent L5178 cells; assay: Rhodamine 123 cellular content in parent L5178 cells (flow cytometry); assay type: cell-based, mouse; settings: data not shown
Experimental: The L5178 mouse T cell lymphoma parent cell line and its MDR1 expressing subline (L5178/MDR1) were used. […] The cells were adjusted to a concentration of 2×10^6 cells per ml, then resuspended in serum-free McCoy's 5A medium and 0.5-ml portions distributed into small (1.2-ml) Eppendorf centrifuge tubes. After adding various concentrations of test compounds as listed below in Table 2, the samples were incubated for 10 min at room temperature (22° C.). […] After centrifugation (450 g, 10 min) the pelleted cells were washed twice with PBS and resuspended in 0.5-ml of PBS for cytometry. The fluorescence intensity of the cell population was measured by flow cytometry using Beckton Dickinson's FACScan instrument.
The percentage mean fluorescence intensity (FL-1) was calculated for the treated parental and MDR1 cell lines as compared with that of untreated cells. […] Other values measured are Forward scattered count (FSC) and site scattered count (SSC).

[2] = Solubility in water; assay type: physicochemical
Description: In one embodiment, CCcompound104, CCcompound26 and EA may be administered orally. The two CC compounds are water-soluble, while EA is first dissolved in absolute ethanol and diluted in water or a suitable physiologically compatible liquid solvent. In one embodiment of the invention, the CC compounds and EA are in the form of a tablet, gel capsule, a liquid, or the like. In each case, the compounds are mixed with one or more carriers chosen by one having ordinary skill in the art to best suit the goal of treatment. In addition to the active compounds, the tablet or gel may contain any component that is presently used in the pharmaceutical field to ensure firmness, stability, solubility and appropriate taste. Any additional component of the tablet or gel will be chemically inert; i.e., it will not participate in a chemical reaction with the active compounds or the other additives. Each compound may be prepared for oral consumption separately, or the tablet, gel capsule or liquid may contain any of the two components or all three components. Tablets containing 25 mg or 50 mg of EA can be purchased from Merck.

- solubility in water [2]: water-soluble
SMILES: C[Si](C)(C)COc1ccc(C(=O)OCCN2CCN(CCCOC(=O)C3c4ccccc4Oc4ccccc43)CC2)cc1.Cl.Cl [CCcompound104]
- effect on the cellular content of Rhodamine 123 [1]: no detectable effects
